Reference: ChEMBL document CHEMBL1201861, “Genomics of Drug Sensitity in Cancer screening data, Wellcome Trust Sanger Institute”

Assays:
Test in all cases: cells
[1] = system: LB831-BLC; format: functional, cell-based, Homo sapiens; conditions: Homo sapiens, LB831-BLC;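 note: growth inhibition of LB831-BLC cells, read out with a cell viability assay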
Description: SANGER: Inhibition of human LB831-BLC cell growth in a cell viability assay.

[2] = system: U-251; format: functional, cell-based, Homo sapiens; conditions: Homo sapiens, U-251;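 note: growth inhibition of human U-251 cells, read out through a cell viability assay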
Description: SANGER: Inhibition of human U251 cell growth in a cell viability assay.

[3] = system: CAL-72; format: functional, cell-based, Homo sapiens; conditions: Homo sapiens, CAL-72;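 note: cell viability assay measuring inhibition of proliferation in the CAL-72 cell line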
Description: SANGER: Inhibition of human CAL-72 cell growth in a cell viability assay.

[4] = system: NB69; format: functional, cell-based, Homo sapiens; conditions: Homo sapiens, NB69;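 note: growth inhibition of NB69 cells, determined by a cell viability assay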
Description: SANGER: Inhibition of human NB69 cell growth in a cell viability assay.

[5] = system: OE19; format: functional, cell-based, Homo sapiens; conditions: Homo sapiens, OE19;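 note: growth inhibition of OE19 cells, measured through a cell viability read-out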
Description: SANGER: Inhibition of human OE19 cell growth in a cell viability assay.

[6] = system: SK-OV-3; format: functional, cell-based, Homo sapiens; conditions: Homo sapiens, SK-OV-3;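 note: growth inhibition of SK-OV-3 human cells, read out with a cell viability assay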
Description: SANGER: Inhibition of human SK-OV-3 cell growth in a cell viability assay.

[7] = system: EW-3; format: functional, cell-based; conditions: Homo sapiens;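 note: cell viability assay read-out, IC50 reflects inhibition of growth of the EW-3 cells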
Description: SANGER: Inhibition of human EW-3 cell growth in a cell viability assay.

[8] = system: MDA-MB-157; format: functional, cell-based, Homo sapiens; conditions: Homo sapiens, MDA-MB-157
Description: SANGER: Inhibition of human MDA-MB-157 cell growth in a cell viability assay.

[9] = system: HTC-C3; format: functional, cell-based, Homo sapiens; conditions: Homo sapiens, HTC-C3;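 note: inhibition of cell growth, read out with a cell viability assay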
Description: SANGER: Inhibition of human HTC-C3 cell growth in a cell viability assay.

[10] = system: CAL-85-1; format: functional, cell-based; conditions: Homo sapiens;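 note: growth inhibition of human CAL-85-1 cells, read out with a cell viability assay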
Description: SANGER: Inhibition of human CAL-85-1 cell growth in a cell viability assay.

[11] = system: NCI-H1838; format: functional, cell-based, Homo sapiens; conditions: Homo sapiens, NCI-H1838;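 note: growth inhibition of NCI-H1838 cells, determined with a cell viability readout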
Description: SANGER: Inhibition of human NCI-H1838 cell growth in a cell viability assay.

[12] = system: Detroit 562; format: functional, cell-based, Homo sapiens; conditions: Homo sapiens, Detroit 562;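 note: growth inhibition of human Detroit 562 cells, read out by a cell viability assay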
Description: SANGER: Inhibition of human Detroit562 cell growth in a cell viability assay.

[13] = system: HT-1376; format: functional, cell-based, Homo sapiens; conditions: Homo sapiens, HT-1376
Description: SANGER: Inhibition of human HT-1376 cell growth in a cell viability assay.

[14] = system: SW1463; format: functional, cell-based, Homo sapiens; conditions: Homo sapiens, SW1463;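 note: growth inhibition of SW1463 cells, determined with a cell viability assay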
Description: SANGER: Inhibition of human SW1463 cell growth in a cell viability assay.

[15] = system: D-336MG; format: functional, cell-based, Homo sapiens; conditions: Homo sapiens, D-336MG
Description: SANGER: Inhibition of human D-336MG cell growth in a cell viability assay.

[16] = system: SBC-1; format: functional, cell-based; conditions: Homo sapiens;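 note: cell viability assay measuring growth inhibition of the SBC-1 cell line, IC50 being the concentration that halves growth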
Description: SANGER: Inhibition of human SBC-1 cell growth in a cell viability assay.

[17] = system: NEC8; format: functional, cell-based, Homo sapiens; conditions: Homo sapiens, NEC8;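 note: growth inhibition of human NEC8 cells, read out by a cell viability assay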
Description: SANGER: Inhibition of human NEC8 cell growth in a cell viability assay.

[18] = system: CP66-MEL; format: functional, cell-based, Homo sapiens; conditions: Homo sapiens, CP66-MEL;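 note: growth inhibition of CP66-MEL cells determined in a cell viability assay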
Description: SANGER: Inhibition of human CP66-MEL cell growth in a cell viability assay.

[19] = system: EFO-27; format: functional, cell-based, Homo sapiens; conditions: Homo sapiens, EFO-27;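 note: growth inhibition of EFO-27 cells, read out with a cell viability assay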
Description: SANGER: Inhibition of human EFO-27 cell growth in a cell viability assay.

[20] = system: NCI-H1581; format: functional, cell-based, Homo sapiens; conditions: Homo sapiens, NCI-H1581;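 note: cell growth inhibition read out by a viability assay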
Description: SANGER: Inhibition of human NCI-H1581 cell growth in a cell viability assay.

[21] = system: LU-139; format: functional, cell-based; conditions: Homo sapiens
Description: SANGER: Inhibition of human LU-139 cell growth in a cell viability assay.

[22] = system: T98G; format: functional, cell-based, Homo sapiens; conditions: Homo sapiens, T98G;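 note: growth inhibition of T98G cells, read out by a cell viability assay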
Description: SANGER: Inhibition of human T98G cell growth in a cell viability assay.

[23] = system: PSN1; format: functional, cell-based, Homo sapiens; conditions: Homo sapiens, PSN1;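 note: suppression of growth of human PSN1 cells, read out by a cell viability assay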
Description: SANGER: Inhibition of human PSN1 cell growth in a cell viability assay.

[24] = system: Hs-578T; format: functional, cell-based, Homo sapiens; conditions: Homo sapiens, Hs-578T
Description: SANGER: Inhibition of human Hs-578-T cell growth in a cell viability assay.

[25] = system: HT-3; format: functional, cell-based, Homo sapiens; conditions: Homo sapiens, HT-3;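 note: growth inhibition measured with a cell viability readout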
Description: SANGER: Inhibition of human HT-3 cell growth in a cell viability assay.

[26] = system: SW626; format: functional, cell-based, Homo sapiens; conditions: Homo sapiens, SW626;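 note: growth inhibition of SW626 cells, measured with a cell viability assay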
Description: SANGER: Inhibition of human SW626 cell growth in a cell viability assay.

[27] = system: NCI-H441; format: functional, cell-based; conditions: Homo sapiens;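 note: growth inhibition of NCI-H441 cells, read out with a cell viability assay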
Description: SANGER: Inhibition of human NCI-H441 cell growth in a cell viability assay.

[28] = system: NTERA-2-cl-D1; format: functional, cell-based, Homo sapiens; conditions: Homo sapiens, NTERA-2-cl-D1;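 note: inhibition of cell growth, measured with a cell viability assay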
Description: SANGER: Inhibition of human NTERA-S-cl-D1 cell growth in a cell viability assay.

[29] = system: UACC-62; format: functional, cell-based, Homo sapiens; conditions: Homo sapiens, UACC-62;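 note: growth inhibition of human UACC-62 cells, read out by a cell viability assay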
Description: SANGER: Inhibition of human UACC-62 cell growth in a cell viability assay.

[30] = system: SCC-9; format: functional, cell-based, Homo sapiens; conditions: Homo sapiens, SCC-9;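 note: Read-out is a cell viability assay, with values giving inhibition of cell growth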
Description: SANGER: Inhibition of human SCC-9 cell growth in a cell viability assay.

[31] = system: PC-3; format: functional, cell-based, Homo sapiens; conditions: Homo sapiens, PC-3;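 note: cell viability assay measuring growth inhibition of PC-3 cells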
Description: SANGER: Inhibition of human PC-3 cell growth in a cell viability assay.

[32] = system: BE-13; format: functional, cell-based; conditions: Homo sapiens;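 note: growth inhibition of human BE-13 cells, measured with a cell viability assay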
Description: SANGER: Inhibition of human BE-13 cell growth in a cell viability assay.

[33] = system: ETK-1; format: functional, cell-based, Homo sapiens; conditions: Homo sapiens, ETK-1;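 note: growth inhibition of human ETK-1 cells, read out with a cell viability assay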
Description: SANGER: Inhibition of human ETK-1 cell growth in a cell viability assay.

[34] = system: C-33-A; format: functional, cell-based, Homo sapiens; conditions: Homo sapiens, C-33-A;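 note: cell viability assay measuring growth inhibition of C-33-A cells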
Description: SANGER: Inhibition of human C-33-A cell growth in a cell viability assay.

[35] = system: MDA-MB-453; format: functional, cell-based, Homo sapiens; conditions: Homo sapiens, MDA-MB-453
Description: SANGER: Inhibition of human MDA-MB-453 cell growth in a cell viability assay.

[36] = system: DU-145; format: functional, cell-based, Homo sapiens; conditions: Homo sapiens, DU-145
Description: SANGER: Inhibition of human DU-145 cell growth in a cell viability assay.

[37] = system: KMOE-2; format: functional, cell-based; conditions: Homo sapiens;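 note: growth inhibition of human KMOE-2 cells, read out with a cell viability assay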
Description: SANGER: Inhibition of human KMOE-2 cell growth in a cell viability assay.

[38] = system: A253 cell line; format: functional, cell-based, Homo sapiens; conditions: Homo sapiens, A253;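 note: growth inhibition of A253 cells, read out with a cell viability assay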
Description: SANGER: Inhibition of human A253 cell growth in a cell viability assay.

[39] = system: SCC-15; format: functional, cell-based, Homo sapiens; conditions: Homo sapiens, SCC-15;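 note: growth inhibition of SCC-15 cells, read out with a cell viability assay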
Description: SANGER: Inhibition of human SCC-15 cell growth in a cell viability assay.

[40] = system: BFTC-905; format: functional, cell-based, Homo sapiens; conditions: Homo sapiens, BFTC-905
Description: SANGER: Inhibition of human BFTC-905 cell growth in a cell viability assay.

[41] = system: MV4-11; format: functional, cell-based, MV-4-11; conditions: Homo sapiens;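 note: cell viability readout measuring growth inhibition of human MV-4-11 cells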
Description: SANGER: Inhibition of human MV-4-11 cell growth in a cell viability assay.

[42] = system: A3-KAW; format: functional, cell-based; conditions: Homo sapiens;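 note: growth inhibition of human A3-KAW cells, read out with a cell viability assay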
Description: SANGER: Inhibition of human A3-KAW cell growth in a cell viability assay.

[43] = system: K562; format: functional, cell-based; conditions: Homo sapiens
Description: SANGER: Inhibition of human K-562 cell growth in a cell viability assay.

[44] = system: NCI-H596; format: functional, cell-based, Homo sapiens; conditions: Homo sapiens, NCI-H596;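 note: growth inhibition of NCI-H596 cells, read out with a cell viability assay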
Description: SANGER: Inhibition of human NCI-H596 cell growth in a cell viability assay.

[45] = system: ALL-PO; format: functional, cell-based; conditions: Homo sapiens;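 note: growth inhibition of ALL-PO cells, read out by a cell viability assay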
Description: SANGER: Inhibition of human ALL-PO cell growth in a cell viability assay.

[46] = system: MDA-MB-231; format: functional, cell-based, Homo sapiens; conditions: Homo sapiens, MDA-MB-231
Description: SANGER: Inhibition of human MDA-MB-231 cell growth in a cell viability assay.

[47] = system: GCIY; format: functional, cell-based, Homo sapiens; conditions: Homo sapiens, GCIY;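 note: growth inhibition of the human GCIY cell line, read out by a cell viability assay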
Description: SANGER: Inhibition of human GCIY cell growth in a cell viability assay.

[48] = system: HSC-3; format: functional, cell-based, Homo sapiens; conditions: Homo sapiens, HSC-3
Description: SANGER: Inhibition of human HSC-3 cell growth in a cell viability assay.

[49] = system: BT-20; format: functional, cell-based, Homo sapiens; conditions: Homo sapiens, BT-20;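 note: cell viability assay measuring suppression of growth in human BT-20 cells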
Description: SANGER: Inhibition of human BT-20 cell growth in a cell viability assay.

[50] = system: HCC1395; format: functional, cell-based, Homo sapiens; conditions: Homo sapiens, HCC1395;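 note: growth inhibition of HCC1395 cells, read out by a cell viability assay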
Description: SANGER: Inhibition of human HCC1395 cell growth in a cell viability assay.

[51] = system: MKN-1; format: functional, cell-based, Homo sapiens; conditions: Homo sapiens, MKN-1;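 note: growth inhibition of human MKN1 cells, read out by a cell viability measurement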
Description: SANGER: Inhibition of human MKN1 cell growth in a cell viability assay.

[52] = system: HCC2157; format: functional, cell-based; conditions: Homo sapiens;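 note: growth inhibition of the cancer cell line, read out as cell viability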
Description: SANGER: Inhibition of human HCC2157 cell growth in a cell viability assay.

Cc1cnc(-c2cnc(NCCNc3ccc(C#N)cn3)nc2-c2ccc(Cl)cc2Cl)[nH]1 [LADUVIGLUSIB]
IC50 [1]: > 2560 nM
IC50 [2]: > 2560 nM
IC50 [3]: > 2560 nM
IC50 [4]: > 2560 nM
IC50 [5]: > 2560 nM
IC50 [6]: > 2560 nM
IC50 [7]: > 2560 nM
IC50 [8]: > 2560 nM
IC50 [9]: > 2560 nM
IC50 [10]: > 2560 nM
IC50 [11]: > 2560 nM
IC50 [12]: > 2560 nM
IC50 [13]: > 2560 nM
IC50 [14]: > 2560 nM
IC50 [15]: 846 nM
IC50 [16]: > 2560 nM
IC50 [17]: > 2560 nM
IC50 [18]: > 2560 nM
IC50 [19]: > 2560 nM
IC50 [20]: > 2560 nM
IC50 [21]: > 2560 nM
IC50 [22]: > 2560 nM
IC50 [23]: > 2560 nM
IC50 [24]: > 2560 nM
IC50 [25]: > 2560 nM
IC50 [26]: > 2560 nM
IC50 [27]: > 2560 nM
IC50 [28]: > 2560 nM
IC50 [29]: > 2560 nM
IC50 [30]: > 2560 nM
IC50 [31]: > 2560 nM
IC50 [32]: > 2560 nM
IC50 [33]: > 2560 nM
IC50 [34]: > 2560 nM
IC50 [35]: > 2560 nM
IC50 [36]: > 2560 nM
IC50 [37]: > 2560 nM
IC50 [38]: > 2560 nM
IC50 [39]: > 2560 nM
IC50 [40]: > 2560 nM
IC50 [41]: > 2560 nM
IC50 [42]: > 2560 nM
IC50 [43]: > 2560 nM
IC50 [44]: > 2560 nM
IC50 [45]: > 2560 nM
IC50 [46]: > 2560 nM
IC50 [47]: > 2560 nM
IC50 [48]: > 2560 nM
IC50 [49]: > 2560 nM
IC50 [50]: 1780 nM
IC50 [51]: > 2560 nM
IC50 [52]: > 2560 nM

CN(c1ncccc1CNc1nc(Nc2ccc3c(c2)CC(=O)N3)ncc1C(F)(F)F)S(C)(=O)=O [PF-00562271]
IC50 [1]: 2010 nM
IC50 [2]: 1740 nM
IC50 [3]: > 2560 nM
IC50 [4]: > 2560 nM
IC50 [5]: > 2560 nM
IC50 [6]: > 2560 nM
IC50 [7]: > 2560 nM
IC50 [8]: > 2560 nM
IC50 [9]: > 2560 nM
IC50 [10]: 1800 nM
IC50 [11]: > 2560 nM
IC50 [12]: 1350 nM
IC50 [13]: > 2560 nM
IC50 [14]: > 2560 nM
IC50 [15]: 1860 nM
IC50 [16]: > 2560 nM
IC50 [17]: > 2560 nM
IC50 [18]: > 2560 nM
IC50 [19]: 2520 nM
IC50 [20]: > 2560 nM
IC50 [21]: > 2560 nM
IC50 [22]: > 2560 nM
IC50 [23]: > 2560 nM
IC50 [24]: > 2560 nM
IC50 [25]: > 2560 nM
IC50 [26]: > 2560 nM
IC50 [27]: > 2560 nM
IC50 [28]: > 2560 nM
IC50 [29]: > 2560 nM
IC50 [30]: > 2560 nM
IC50 [31]: > 2560 nM
IC50 [32]: > 2560 nM
IC50 [33]: 2280 nM
IC50 [34]: > 2560 nM
IC50 [35]: > 2560 nM
IC50 [36]: 2490 nM
IC50 [37]: > 2560 nM
IC50 [38]: > 2560 nM
IC50 [39]: > 2560 nM
IC50 [40]: > 2560 nM
IC50 [41]: 277 nM
IC50 [42]: > 2560 nM
IC50 [43]: > 2560 nM
IC50 [44]: > 2560 nM
IC50 [45]: 1020 nM
IC50 [46]: 2500 nM
IC50 [47]: > 2560 nM
IC50 [48]: > 2560 nM
IC50 [49]: > 2560 nM
IC50 [50]: > 2560 nM
IC50 [51]: > 2560 nM
IC50 [52]: > 2560 nM

CCC1=C[C@@H]2CN(C1)Cc1c([nH]c3ccccc13)[C@@](C(=O)OC)(c1cc3c(cc1OC)N(C)[C@H]1[C@@](O)(C(=O)OC)[C@H](OC(C)=O)[C@]4(CC)C=CCN5CC[C@]31[C@@H]54)C2 [VINORELBINE]
IC50 [1]: 29.2 nM
IC50 [2]: 6.89 nM
IC50 [3]: > 64 nM
IC50 [4]: 45.5 nM
IC50 [5]: 13.2 nM
IC50 [6]: 8.39 nM
IC50 [7]: > 64 nM
IC50 [8]: > 64 nM
IC50 [9]: 26.5 nM
IC50 [10]: 4.9 nM
IC50 [11]: > 64 nM
IC50 [12]: 7.55 nM
IC50 [13]: 31.5 nM
IC50 [14]: > 64 nM
IC50 [15]: 63.9 nM
IC50 [16]: > 64 nM
IC50 [17]: 13.9 nM
IC50 [18]: 45.1 nM
IC50 [19]: 5.79 nM
IC50 [20]: 37.2 nM
IC50 [21]: 52.9 nM
IC50 [22]: 18.9 nM
IC50 [23]: > 64 nM
IC50 [24]: > 64 nM
IC50 [25]: > 64 nM
IC50 [26]: 37.7 nM
IC50 [27]: 33.1 nM
IC50 [28]: 0.939 nM
IC50 [29]: 33.4 nM
IC50 [30]: 2.05 nM
IC50 [31]: > 64 nM
IC50 [32]: 12.4 nM
IC50 [33]: 6.92 nM
IC50 [34]: 7.31 nM
IC50 [35]: > 64 nM
IC50 [36]: 4.81 nM
IC50 [37]: > 64 nM
IC50 [38]: 1.22 nM
IC50 [39]: 8.7 nM
IC50 [40]: 3.62 nM
IC50 [41]: 10.4 nM
IC50 [42]: 21.6 nM
IC50 [43]: > 64 nM
IC50 [44]: > 64 nM
IC50 [45]: 3.36 nM
IC50 [46]: 37.4 nM
IC50 [47]: 57.9 nM
IC50 [48]: 5.62 nM
IC50 [49]: 12.4 nM
IC50 [50]: 15.9 nM
IC50 [51]: 11.8 nM
IC50 [52]: 18.8 nM
